Patent publication US20150352108A1, “AMINO-PYRIMIDINE COMPOUNDS AS INHIBITORS OF TBK1 AND/OR IKK EPSILON” (Alzheimer's Institute of America, priority 2009, published 2015)
Where two headings read alike, the source gives them in different places.

Legend:
TBK1 = molecular target: T1, TBK1 (Homo sapiens, UniProt Q9UHD2); experiment: In-vitro TBK1 kinase assay ([γ33]ATP filter-plate); assay type: biochemical
T1 construct: His-tag; made in house; host or cells: Sf9 insect cells
T1 sequence (Q9UHD2 1-729): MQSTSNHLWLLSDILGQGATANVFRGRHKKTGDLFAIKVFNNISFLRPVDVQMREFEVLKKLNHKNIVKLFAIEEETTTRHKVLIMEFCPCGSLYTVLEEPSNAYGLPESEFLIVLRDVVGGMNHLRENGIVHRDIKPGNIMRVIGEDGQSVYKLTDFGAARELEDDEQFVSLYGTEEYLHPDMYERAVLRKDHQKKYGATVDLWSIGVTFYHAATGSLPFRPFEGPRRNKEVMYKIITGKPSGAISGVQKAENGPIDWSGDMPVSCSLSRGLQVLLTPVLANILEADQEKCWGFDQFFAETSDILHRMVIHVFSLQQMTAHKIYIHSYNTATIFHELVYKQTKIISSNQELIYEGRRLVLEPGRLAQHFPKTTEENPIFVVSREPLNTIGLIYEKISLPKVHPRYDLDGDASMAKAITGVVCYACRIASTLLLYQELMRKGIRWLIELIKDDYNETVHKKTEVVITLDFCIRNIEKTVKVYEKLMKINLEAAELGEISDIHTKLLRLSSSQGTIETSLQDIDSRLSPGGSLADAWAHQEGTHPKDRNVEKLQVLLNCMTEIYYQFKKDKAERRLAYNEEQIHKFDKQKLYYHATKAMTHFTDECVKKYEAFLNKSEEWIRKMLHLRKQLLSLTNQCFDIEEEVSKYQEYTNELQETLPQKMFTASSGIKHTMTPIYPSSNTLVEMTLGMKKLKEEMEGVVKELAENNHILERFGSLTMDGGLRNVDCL
How it was run: (§1)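 His-tagged IKKε and TBK1 from Sf9 cells were assayed with myelin basic protein or casein and [γ33]ATP at 2×Km ATP (32 μM for IKKε, 60 μM for TBK1). Enzyme was 0.1 or 0.015 μg/ml for IKKε and 0.1 or 0.02 μg/ml for TBK1 (normal/sensitized). Reactions ran 30-45 min, were filter-captured, scintillation-counted, and normalized to DMSO after background subtraction.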

IKKε = molecular target: T2, IKKε (Homo sapiens, UniProt Q14164); experiment: In-vitro IKKε kinase assay ([γ33]ATP filter-plate); assay type: biochemical
T2 construct: His-tag; made in house; host or cells: Sf9 insect cells
T2 sequence (Q14164 1-716): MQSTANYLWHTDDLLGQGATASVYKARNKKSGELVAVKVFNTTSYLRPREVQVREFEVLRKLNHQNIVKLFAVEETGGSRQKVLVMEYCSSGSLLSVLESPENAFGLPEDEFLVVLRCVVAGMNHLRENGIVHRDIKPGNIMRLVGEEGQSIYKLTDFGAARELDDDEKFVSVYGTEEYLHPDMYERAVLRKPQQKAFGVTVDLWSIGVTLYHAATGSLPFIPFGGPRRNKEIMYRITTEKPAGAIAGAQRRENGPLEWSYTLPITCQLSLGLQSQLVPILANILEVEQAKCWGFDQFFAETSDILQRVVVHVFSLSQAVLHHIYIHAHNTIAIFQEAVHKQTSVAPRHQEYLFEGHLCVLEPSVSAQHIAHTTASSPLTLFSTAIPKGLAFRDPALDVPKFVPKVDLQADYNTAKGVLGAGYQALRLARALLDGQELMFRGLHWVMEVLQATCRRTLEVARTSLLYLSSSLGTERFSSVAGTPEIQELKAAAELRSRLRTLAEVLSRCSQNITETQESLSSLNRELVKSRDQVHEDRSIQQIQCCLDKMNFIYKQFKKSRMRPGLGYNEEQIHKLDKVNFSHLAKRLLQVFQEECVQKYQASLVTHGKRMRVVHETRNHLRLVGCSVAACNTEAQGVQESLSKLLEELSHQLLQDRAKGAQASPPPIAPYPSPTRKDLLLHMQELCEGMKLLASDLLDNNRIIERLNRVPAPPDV
How it was run: as §1

[1] = text bins, read-out: IC50 for inhibition of the kinase activity of TBK1
[2] = text bins, read-out: IC50 for inhibition of the kinase activity of IKKε

| SMILES | IC50 (TBK1; [1]) [nM] | IC50 (IKKε; [2]) [nM] | IC50 (TBK1; Table 3, read-out: TBK1 IC50) [nM] | IC50 (IKKε; Table 3, read-out: IKKε IC50) [nM] |
| --- | --- | --- | --- | --- |
| COc1ccc(-c2ccnc(Nc3ccc(N4CCN(C)CC4)cc3)n2)cc1C#N [compound 297, 2-Methoxy-5-(2-{[4-(4-methylpiperazin-1-yl)phenyl]amino}pyrimidin-4-yl)benzonitrile] | < 10 | 5 to 50 |  |  |
| N#Cc1cc(-c2ccnc(Nc3ccc(N4CCOCC4)cc3)n2)ccc1OC1CCN(C(=O)CO)C1 (centres unmarked) [Example 96, 2-{[1-(Hydroxyacetyl)pyrrolidin-3-yl]oxy}-5-(2-{[4-(morpholin-4-yl)phenyl]amino}pyrimidin-4-yl)benzonitrile] | < 10 | < 5 |  |  |
| COC(=O)c1ccc(Nc2nccc(-c3ccc(OC4CCN(C(=O)[C@H](C)O)CC4)c(C#N)c3)n2)cc1OC [compound 324, methyl 4-({4-[3-cyano-4-({1-[(2S)-2-hydroxypropanoyl]piperidin-4-yl}oxy)phenyl]pyrimidin-2-yl}amino)-2-methoxybenzoate] | 10 to 100 | 5 to 50 |  |  |
| COc1cc(Nc2nccc(-c3ccc(OC4CCOCC4)c(C#N)c3)n2)ccc1OCCCS(=O)(=O)N1CCOCC1 [Example 28, 5-[2-({3-methoxy-4-[3-(morpholin-4-ylsulfonyl)propoxy]phenyl}amino)pyrimidin-4-yl]-2-(tetrahydro-2H-pyran-4-yloxy)benzonitrile] | < 10 | < 5 |  |  |
| COc1cc(Nc2nccc(-c3ccc(OC)c(C#N)c3)n2)cc(OC2CCN(C)CC2)c1 [Example 259, 2-Methoxy-5-[2-({3-methoxy-5-[(1-methylpiperidin-4-yl)oxy]phenyl}amino)pyrimidin-4-yl]benzonitrile] | 10 to 100 | 5 to 50 |  |  |
| CS(=O)(=O)N1CCN(c2ccc(Nc3nccc(-c4ccc(OC5CCOCC5)c(C#N)c4)n3)cc2)CC1 [Example 100, 5-[2-({4-[4-(methylsulfonyl)piperazin-1-yl]phenyl}amino)pyrimidin-4-yl]-2-(tetrahydro-2H-pyran-4-yloxy)benzonitrile] | < 10 | < 5 |  |  |
| C[C@H](O)C(=O)N1CCC(COc2ccc(-c3ccnc(Nc4ccc(N5CCOCC5)cc4)n3)cc2C#N)CC1 [Example 152, 2-({1-[(2S)-2-hydroxypropanoyl]piperidin-4-yl}methoxy)-5-(2-{[4-(morpholin-4-yl)phenyl]amino}pyrimidin-4-yl)benzonitrile] | 10 to 100 | 5 to 50 |  |  |
| COc1ccc(-c2ccnc(Nc3cc(CN4CCOCC4)c(OC)c(OC)c3)n2)cc1C#N [Example 226, 5-(2-{[3,4-Dimethoxy-5-(morpholin-4-ylmethyl)phenyl]amino}pyrimidin-4-yl)-2-methoxybenzonitrile] | 10 to 100 | 5 to 50 |  |  |
| COC(=O)c1ccc(Nc2nccc(-c3ccc(OC4CCN(C(=O)[C@H](C)O)CC4)c(C#N)c3)n2)cc1 [compound 342, methyl 4-({4-[3-cyano-4-({1-[(2S)-2-hydroxypropanoyl]piperidin-4-yl}oxy)phenyl]pyrimidin-2-yl}amino)benzoate] | < 10 | 5 to 50 |  |  |
| N#Cc1cc(-c2ccnc(Nc3ccc(N4CCOCC4)cc3)n2)ccc1OCCN [Example 220, 2-(2-aminoethoxy)-5-(2-{[4-(morpholin-4-yl)phenyl]amino}pyrimidin-4-yl)benzonitrile] | < 10 | 5 to 50 |  |  |
| COc1ccc(-c2ccnc(Nc3cc(CN(C)CC(=O)N(C)C)c(OC)c(OC)c3)n2)cc1C#N [Example 115, N~2~-(5-{[4-(3-Cyano-4-methoxyphenyl)pyrimidin-2-yl]amino}-2,3-dimethoxybenzyl)-N,N,N~2~- trimethylglycinamide] | 10 to 100 | < 5 |  |  |
| COc1cc(NC(=O)NCCCN)cc(Nc2nccc(-c3ccc(OC)c(C#N)c3)n2)c1 [compound 320, 1-(3-Aminopropyl)-3-(3-{[4-(3-cyano-4-methoxyphenyl)pyrimidin-2-yl]amino}-5-methoxyphenyl)urea] | 10 to 100 | 50 to 500 |  |  |
| COc1cc(C#N)cc(-c2ccnc(Nc3ccc(OC)c(OC)c3)n2)c1 [Example 172, 3-{2-[(3,4-Dimethoxyphenyl)amino]pyrimidin-4-yl}-5-methoxybenzonitrile] | 10 to 100 | 5 to 50 |  |  |
| COc1cc(Nc2nccc(-c3ccc(OC)c(C#N)c3)n2)cc(C(=O)O)c1 [compound 305] | 10 to 100 | 5 to 50 |  |  |
| N#Cc1cc(-c2ccnc(Nc3ccc(N4CCOCC4)cc3)n2)ccc1OC1CNC1 [Example 143, 2-(azetidin-3-yloxy)-5-(2-{[4-(morpholin-4-yl)phenyl]amino}pyrimidin-4-yl)benzonitrile] | < 10 | 5 to 50 |  |  |
| N#Cc1cc(-c2ccnc(Nc3ccc(N4CCOCC4)cc3)n2)ccc1OC1CCOC1 (centres unmarked) [Example 261, 5-(2-{[4-(Morpholin-4-yl)phenyl]amino}pyrimidin-4-yl)-2-(tetrahydrofuran-3-yloxy)benzonitrile] | < 10 | < 5 |  |  |

Further lines, results first:

| IC50 (TBK1; [1]) [nM] | IC50 (IKKε; [2]) [nM] | IC50 (TBK1; Table 3, read-out: TBK1 IC50) [nM] | IC50 (IKKε; Table 3, read-out: IKKε IC50) [nM] | SMILES |
| --- | --- | --- | --- | --- |
| < 10 | < 5 |  |  | COc1cc(Nc2nccc(-c3ccc(OC4CCOCC4)c(C#N)c3)n2)ccc1C(=O)N1CC2CC1CN2 (centres unmarked) [compound 496, 5-(2-{[4-(2,5-diazabicyclo[2.2.1]hept-2-ylcarbonyl)-3-methoxyphenyl]amino}pyrimidin-4-yl)-2-(tetrahydro-2H-pyran-4-yloxy)benzonitrile] |
| 10 to 100 | 5 to 50 |  |  | CC(C)C(=O)Nc1ccc(-c2ccnc(Nc3ccc(CN4CCOCC4)cc3)n2)cc1C#N [compound 428, N-[2-cyano-4-(2-{[4-(morpholin-4-ylmethyl)phenyl]amino}pyrimidin-4-yl)phenyl]-2-methylpropanamide] |
| 10 to 100 | 5 to 50 |  |  | COc1cc(Nc2nccc(-c3ccc(NC(=O)C4CC4)c(C#N)c3)n2)ccc1CN1CC(OC)C1 [compound 570, N-{2-Cyano-4-[2-({3-methoxy-4-[(3-methoxyazetidin-1-yl)methyl]phenyl}amino)pyrimidin-4-yl]phenyl} cyclopropane-carboxamide] |
| 10 to 100 | 50 to 500 |  |  | N#Cc1cc(-c2ccnc(Nc3ccc(N4CCOCC4)cc3)n2)ccc1OCC[C@H]1CCCCN1C(=O)CO [compound 448, 2-{2-[(2R)-1-(hydroxyacetyl)piperidin-2-yl]ethoxy}-5-(2-{[4-(morpholin-4-yl)phenyl]amino}pyrimidin-4-yl)benzonitrile] |
| 10 to 100 | 5 to 50 |  |  | COc1ccc(-c2ccnc(Nc3ccc(NC(C)=O)cc3)n2)cc1C#N [compound 361, N-(4-{[4-(3-Cyano-4-methoxyphenyl)pyrimidin-2-yl]amino}phenyl) acetamide] |
| < 10 | < 5 | 0.2 | 3.5 | COc1cc(-c2ccnc(Nc3ccc(N4CCOCC4)cc3)n2)cc(C#N)c1OC1CCOCC1 [compound 467, 3-methoxy-5-(2-{[4-(morpholin-4-yl)phenyl]amino}pyrimidin-4-yl)-2-(tetrahydro-2H-pyran-4-yloxy)benzonitrile] |
| 10 to 100 | 5 to 50 |  |  | COc1cc(NC(=O)N2CC[C@@H](O)C2)cc(Nc2nccc(-c3ccc(OC)c(C#N)c3)n2)c1 [compound 378, (3R)-N-(3-{[4-(3-Cyano-4-methoxyphenyl)pyrimidin-2-yl]amino}-5-methoxyphenyl)-3-hydroxypyrrolidine-1-carboxamide] |
| 10 to 100 | 5 to 50 |  |  | CCN(CC)CCN(CC)S(=O)(=O)Cc1ccc(Nc2nccc(-c3ccc(OC4CCOCC4)c(C#N)c3)n2)cc1 [compound 412, 1-[4-({4-[3-Cyano-4-(tetrahydro-2H-pyran-4-yloxy)phenyl]pyrimidin-2-yl}amino)phenyl]-N-[2-(diethylamino)ethyl]-N-ethylmethane-sulfonamide] |
